Series [1] relates to HaCaT cells. As to the kind of experiment: Migration assay (scratch assay, model for wound healing). It is filed as cell-based, human. As to the method:
Using a human keratinocyte cell line (HaCaT) in a Scratch-Assay as a model for wound healing, different model-predicted points of interference were tested. First it was confirmed that HGF-induced migration predominantly depends on a transcriptional response.
Immortalized human keratinocytes (HaCaT cells) were cultured in monoculture with DMEM (10% FCS, 100 U/ml penicillin, 100 µg/ml streptomycin). Subsequently, the cell monolayer was damaged with a 'scratch' using a pipette tip and cells were treated with 5 µg/ml mitomycin c (Sigma-Aldrich) for three hours before stimulation. Cells were stimulated at indicated time points and periods with cytokines and/or inhibitors: 10 ng/ml HGF, (R&D Systems), 1 ng/ml EGF (R&D Systems), 150 nM Tyrphostin AG1473 (Biomol) (EGF-R inhibitor) or 1 µM GW 2974 (Sigma) (EGF-R inhibitor), […] Meloxicam (Biomol) (PTGS-2 inhibitor), 0.5 µM H-89 (Calbiochem) (PKA inhibitor) or 10 µM Myristoylated PKI (14-22) amide, cell-permeable PKA inhibitor (Biomol), 200 µM 8-(4-Chlorophenylthio)adenosine 3',5'-cyclic monophosphate sodium salt (Sigma) (PKA activator) and incubated for further 30 hours. Relative migratory activity was determined by measuring migration distance during culture using standard protocols.

The test system of series [2] is HaCaT cells. As to the kind of experiment: MTT-viability assay. It is filed as cell-based, human. The settings on record: under Actinomycin D treatment; data not shown. On the technique in general: Tetrazolium assays rely on reduction of a dye to a coloured formazan, in cell work by metabolically active cells.

Numbered stars: 1 amine (or outer) side, 2 acyl side, 3 side chain; on linkers, the order of the positions; unused ones are H or OH. Bridge positions count the residues as written; N and C are the ends. Square brackets hold non-standard residues; d marks the D form. Peptide text beside a SMILES is read from it. I, II: the chains in the order shown. Actinocin(9to1) = Cc1c2oc3c(C)ccc(C(=O)[*:1])c3nc-2c(C(=O)[*:2])c(N)c1=O; NMeV = CN[C@H](C(=O)O)C(C)C; Sar = CNCC(=O)O

On to `CN(C)c1cc2c(Nc3ccc4c(cnn4Cc4ccccc4)c3)ncnc2cn1` [GW2974], for which the HGF-induced migration result in series [1] (Fig. 3G, 1 µM GW 2974 simultaneous to 10 ng/ml HGF, 30 h) is “abolish HGF-induced migration”.
With `O=S(=O)(NCCNC/C=C/c1ccc(Br)cc1)c1cccc2cnccc12` [H-89], in series [1] (Fig. 6C, 0.5 µM at the time of HGF stimulation), the HGF-induced migration result is given as “slightly increases migration”. In addition, the “development of a migratory response” value in series [1] (Fig. 6C, 0.5 µM directly after HGF pulse stimulation (1.5 h)) is on record as “does not alter development of a migratory response”. Also, the further migration entry in series [1] (Fig. 6C, PKA inhibition after 22 h, when cells already developed a full migratory response) is recorded as “delays further migration”.
As to `Nc1ncnc2c1nc(Sc1ccc(Cl)cc1)n2[C@@H]1O[C@@H]2COP(=O)([O-])O[C@H]2[C@H]1O.[Na+]` [8-(4-Chlorophenylthio)adenosine 3',5'-cyclic monophosphate sodium salt], the “HGF-induced HaCaT migration” value in series [1] (Fig. 6C, 200 µM added at different time points with respect to HGF pulse stimulation (10 ng/ml for 1.5h)) is “strongly decreases”.
For `Cc1c2oc3c(C)ccc(C(=O)N[C@@H]4C(=O)N[C@H](C(C)C)C(=O)N5CCC[C@H]5C(=O)N(C)CC(=O)N(C)[C@@H](C(C)C)C(=O)O[C@@H]4C)c3nc-2c(C(=O)N[C@@H]2C(=O)N[C@H](C(C)C)C(=O)N3CCC[C@H]3C(=O)N(C)CC(=O)N(C)[C@@H](C(C)C)C(=O)O[C@@H]2C)c(N)c1=O` [Actimocyin D, Actinomycin D] (I: T[dV]P[Sar][NMeV] / II: T[dV]P[Sar][NMeV]; ester I:1-I:C, II:1-II:C; linker I:N-II:N via Actinocin(9to1)), the cell viability entry in series [2] is “still viable”. Further, the “migratory response to HGF” value in series [1] (Fig. 2B, prolonged incubation (30 h) with 10 ng/ml recombinant human HGF plus Actinomycin D 5 µg/ml) is recorded as “abolished any migratory response to HGF”.
